Reference: patent US10689459B2, “Treatment of breast cancer brain metastases” (THE GENERAL HOSPITAL CORPORATION, priority 2014, dated 2020)

Experiments:
[1] = system: BT474-Gluc-BR cells; test: In vitro sensitivity of cancer cells isolated from a brain metastatic tumor; type: cell-based, human; conditions: BT474-Gluc-BR cultured for a week in vitro
Text: We began our investigation into the resistance of breast cancer BM to PI3K inhibition by asking if breast cancer cells require constant influence from the brain microenvironment. We isolated breast cancer cells after dissociation of a brain metastatic tumor (termed BT474-Gluc-BR). After cultured for a week in vitro, the vast majority of viable cells were cancer cells, as identified by GFP. […] Instead, breast cancer cells must receive continuous support from the brain microenvironment in order to maintain resistance. […]
The xCELLigence system (Acea Biosciences Inc.) was used to assess the cell index of T-47D, BT474 and MDA-MB-361 cells. xCELLigence measures electrical impedance across micro-electrodes integrated at the bottom of tissue culture E-plates to provide quantitative information about the biological status of cells, including cell number, morphology and viability. […] Cells were monitored every 15 m for a period of up to 24 h via the incorporated sensor electrode arrays of the E-Plate 96. […] Electric impedance was measured in 1 h intervals after addition of drug until the end of the experiment. Cell index value, which is a dimensionless parameter derived as a relative change in measured electrical impedance to represent numbers of attached cells, was calculated from the electric impedance and plotted using the RTCA software provided by the vendor. […]

[2] = system: p-AKT; test: p-AKT inhibition in tumor tissue (BM versus MFP tumors); type: in vivo, nude mice; conditions: tumor tissue collected two hours after the final dose
Text: (§1) 5-(2,6-di-morpholin-4-yl-pyrimidin-4-yl)-4-trifluoromethyl-pyridin-2-ylamine (referred to herein as “COMPOUND A”) is a potent and specific pan-Class I PI3K inhibitor with activity against breast cancer cells bearing HER2-amplification as well as oncogenic PI3K catalytic subunit alpha (PIK3CA) mutations. We compared the efficacy of COMPOUND A on identical human HER2-positive breast cancer cells growing in the MFP or in the brain parenchyma of nude mice. The three breast cancer cell lines examined included HER2-amplified BT474, HER2-amplified and PIK3CA mutant (E545K) MDA-MB-361, and PIK3CA mutant (H1047R) T-47D cell lines. […] Furthermore, the concentration of COMPOUND A in breast tumors growing at both sites, as well as in the plasma of these mice was identical.

[3] = Compound A concentration measurement in tumor and plasma (LC-MS/MS); type: in vivo, nude mice; conditions: tumor lysate by LC-MS/MS; comparison between sites
Description: Tumor samples were collected, weighed and lysed in Lysing Matrix D tube (MP Biomedicals) in RIPA buffer (Cell Signaling Technologies (CST)) at fixed weight/volume ratio. The samples were centrifuged at 13,000 rpm and 4° C. in Micro centrifuge for 10 min. Supernatant was collected from the lysate and stored at −80° C. The COMPOUND A concentration in tumor lysate was analyzed by LC-MS/MS at Inventiv Health Clinical Lab, Inc. It was then normalized by tumor weight-lysis buffer ratio to yield COMPOUND A exposure (ng/mL) in tumor tissue.

[4] = system: HER2- or PI3K-driven breast tumors growing in the MFP (BT474, MDA-MB-361, T-47D); test: Mammary fat pad (MFP) xenograft tumor growth; type: in vivo, nude mice; conditions: COMPOUND A 30 or 50 mg/kg once a day p.o.; FIG. 1A
Text: as §1
(§2) BT474, MDA-MB-361, and T-47D cells were transduced with an expression cassette encoding Gluc and GFP separated by an internal ribosomal entry site, using a lentiviral vector. GFP-positive cells were sorted with a FACSAria cell sorter (BD Biosciences). […]
(§3) Tumor size was measured twice a week by measuring the activity of secreted Gluc in the blood. […] Blood was transferred to an opaque 96-well plate, and Gluc activity was measured using coelenterazine (CTZ; Nanolight) as a substrate and a plate luminometer (Centro XS LB960; Berthold Technologies). […]

[5] = system: human breast cancer cells growing in the brain parenchyma (BT474, MDA-MB-361, T-47D); test: Brain metastatic xenograft tumor growth (three cell lines, Example 1); type: in vivo, nude mice; conditions: COMPOUND A 30 or 50 mg/kg once a day p.o.; FIG. 1B
Text: as §1, §2, §3

[6] = system: three HER2-positive breast cancer cell lines; test: Resistance analysis of secreted growth factors (CellTiter-Glo rescue); type: cell-based, human; conditions: unbiased analysis of 220 growth factors; 96 h incubation
Text: A collection of cDNA constructs representing secreted and single pass transmembrane proteins was identified (as described previously described^56) and purchased from Invitrogen Ultimate ORF collection. (The library is maintained by DMP BioArchive.) pCDNA-DEST40 (Invitrogen) was the plasmid vector for all clones, and all clone inserts were confirmed by full sequencing. For this study a collection of 338 cDNA constructs, representing 220 unique secreted and single pass transmembrane proteins, was used to identify rescued ligands in the present of each compound treatment—each cDNA construct was reverse-transfected using HEK293T/17. […] CellTiter-Glo assay was then used for conducting end-point read out. Following plate to plate normalization of the raw CTG reading for triplicates, the rescue % value for each secreted protein was calculated using the following formula: Rescue %=[Median (drug+supe)−Median (drug)]/[Median (DMSO)−Median (drug)]. The statistical probability score of the Rescue % value was also calculated: p-value=Chidist [Z(drug+supe)^2, 1], where Z(drug+supe)=[Median (drug+supe)−Median (drug)]/Std(drug+supe), where drug+supe stands for the individual sample that were treated with individual supernatant that was expected to contain one unique secreted protein. […]

| concentration in breast tumors growing at both sites (MFP, brain) and in plasma [3] | Molecule | in vitro sensitivity of brain microenvironment-exposed cells versus parental cells [1] | level of p-AKT inhibition in BM compared with MFP tumors [2] | tumor response to treatment, tumors growing in the MFP [4] | tumor response to treatment, established brain metastatic lesions [5] | induction of resistance to COMPOUND A [6] |
| --- | --- | --- | --- | --- | --- | --- |
| identical | Nc1cc(C(F)(F)F)c(-c2cc(N3CCOCC3)nc(N3CCOCC3)n2)cn1 [COMPOUND A, 5-(2,6-di-morpholin-4-yl-pyrimidin-4-yl)-4-trifluoromethyl-pyridin-2-ylamine] | similarly sensitive | comparable level of p-AKT inhibition | regression | resistant to treatment | – |
| – | NRG-1: neuregulin 1, HER3 ligand; secreted growth factor (protein) TSHLVKCAEKEKTFCVNGGECFMVKDLSNPSRYLCKCPNEFTGDRCQNYVMASFYKHLGIEFMEAEELYQK | – | – | – | – | most potent inducers of resistance |
